We go through eight compounds from ChEMBL document CHEMBL1150453, “Novel catalytic activity of immobilized spores under reduced water activity” (1997).

Each structure is given as a SMILES string.

What all share (type): functional
Test [1] has as its system Aspergillus ochraceus. Put plainly: Compound was tested for transformation of progesterone by immobilized spores of Aspergillus orchraceus TS.
The subject of test [2] is Aspergillus ochraceus. Put plainly: Compound was tested for transformation of progesterone by Dehydrated immobilized spores of Aspergillus orchraceus TS using the method Freeze-thaw.
The subject of test [3] is Aspergillus ochraceus. The test can be described thus: Compound was tested for transformation of progesterone by Dehydrated immobilized spores of Aspergillus orchraceus TS using the method n-Butylacetate.
For test [4], the system named is Aspergillus ochraceus. The test can be described thus: Compound was tested for transformation of progesterone by Dehydrated immobilized spores of Aspergillus orchraceus TS using the method Amylacetate.
The test system of test [5] is Aspergillus ochraceus. The test can be described thus: Compound was tested for transformation of progesterone by Dehydrated immobilized spores of Aspergillus orchraceus TS using the method Ethylacetate.

With `CC(=O)C1CCC2C3CCC4=CC(=O)CCC4(C)C3[C@@H](O)CC12C` (stereo partly specified), the values for the Activity in the test on Aspergillus ochraceus [1] and in the test with Aspergillus ochraceus [2] were 27.2 uM (g of spores)-1 and 14 uM (g of spores)-1, respectively.

For the compound `CC(=O)OC1CCC2C3CCC4=CC(=O)CCC4(C)C3CCC12C` (stereo unspecified), the Activity in the test on Aspergillus ochraceus [2] is 5 uM (g of spores)-1.

In the case of `CC(=O)C1CCC2C3CCC4=CC(=O)C=CC4(C)C3CCC12C` (stereo unspecified), the Activity in the test with Aspergillus ochraceus [3] is 13.8 uM (g of spores)-1; in the test on Aspergillus ochraceus [4], 16.1 uM (g of spores)-1; in the test on Aspergillus ochraceus [2], 7.6 uM (g of spores)-1; in the test with Aspergillus ochraceus [5], 23.6 uM (g of spores)-1.

In the case of `C[C@]12CCC(=O)C=C1CC[C@@H]1[C@@H]2CC[C@]2(C)C(=O)CC[C@@H]12` [ANDROSTENEDIONE], the Activity with Aspergillus ochraceus [3] is given as 40.4 uM (g of spores)-1; in the test with Aspergillus ochraceus [4], 42.6 uM (g of spores)-1; in the test with Aspergillus ochraceus [2], 14.7 uM (g of spores)-1; in the test with Aspergillus ochraceus [5], 58.7 uM (g of spores)-1.

Regarding `C[C@]12C=CC(=O)C=C1CC[C@@H]1[C@@H]2CC[C@]2(C)C(=O)CC[C@@H]12` [ANDROSTENEDONE], the Activity is reported as 15.8 uM (g of spores)-1 in the test with Aspergillus ochraceus [3], 16.1 uM (g of spores)-1 in the test with Aspergillus ochraceus [4], 14.4 uM (g of spores)-1 in the test on Aspergillus ochraceus [2] and 22.2 uM (g of spores)-1 with Aspergillus ochraceus [5].

Turning to `CC(=O)[C@@]1(O)CC[C@H]2[C@@H]3CCC4=CC(=O)CC[C@]4(C)[C@H]3CC[C@@]21C` [HYDROXYPROGESTERONE], the figures for the Activity with Aspergillus ochraceus [3], with Aspergillus ochraceus [4] and in the test with Aspergillus ochraceus [5] were 12.2 uM (g of spores)-1, 13.8 uM (g of spores)-1 and 20.8 uM (g of spores)-1, respectively.

As for `C[C@]12CCC(=O)C[C@@H]1CC[C@@H]1[C@@H]2CC[C@]2(C)[C@@H](O)CC[C@@H]12` [STANOLONE], the Activity is 2.7 uM (g of spores)-1 in the test with Aspergillus ochraceus [3], 2.9 uM (g of spores)-1 in the test with Aspergillus ochraceus [4], 5.8 uM (g of spores)-1 in the test with Aspergillus ochraceus [2] and 4.2 uM (g of spores)-1 with Aspergillus ochraceus [5].

With `C[C@]12CC[C@H]3[C@@H](CCC4=CC(=O)CC[C@@]43C)[C@@H]1CC[C@@H]2O` [TESTOSTERONE], the Activity is 2.6 uM (g of spores)-1 in the test on Aspergillus ochraceus [3], 2.7 uM (g of spores)-1 with Aspergillus ochraceus [4], 5.5 uM (g of spores)-1 with Aspergillus ochraceus [2] and 3.9 uM (g of spores)-1 with Aspergillus ochraceus [5].
